Data: patent publication US5736384A (priority 1994, dated 1998)
“Also recorded” adds a separate entry of the source. Like-named read-outs stand apart in the source and are kept apart here.

Key:
XP2 [1] = assay: Effects of metal salts on enzyme activity of XP2; assay type: biochemical, Bacillus sp. 2113; settings: for Relative Activity(%) XP2: metal salt 1 mM, 4° C. overnight, also 1 mM in reaction mixture, None = 100; for inhibition of XP2 by metal ion (in words): 1 mM
Experimental: (§1) Various metal salts were added to each of the enzyme solutions to a concentration of 1 mM and retained at 4° C. overnight. Then, a metal salt of the same kind was also added to a reaction mixture to a concentration of 1 mM, and the enzyme activities of XP1 and XP2 were determined.

XP1 [2] = assay: Effects of metal salts on enzyme activity of XP1; assay type: biochemical, Bacillus sp. 2113; settings: metal salt 1 mM, 4° C. overnight, also 1 mM in reaction mixture; None = 100
Experimental: as §1

XP1 [3] = target: T1, XP1 (Paenibacillus sp. DG-22, UniProt A4GG22); assay: Effects of metal salts on enzyme activity of XP1; assay type: biochemical, Bacillus sp. 2113; settings: 1 mM
Experimental: as §1

XP1 [4] = assay: biochemical; assay type: biochemical, Bacillus sp. 2113; settings: inhibitor 1 mM, 4° C. overnight, also 1 mM in reaction mixture, None = 100; for activity at 1000 µM: read-out: Relative Activity(%) XP1
Experimental: (§2) Various inhibitors and the like were added to each of the enzyme solutions to a concentration of 1 mM and retained at 4° C. overnight. Then, the same substance was also added to a reaction mixture to a concentration of 1 mM, and the enzyme activities of XP1 and XP2 were determined.

XP2 [5] = assay type: biochemical, Bacillus sp. 2113
Experimental: as §2

XP1 [6] = target: T1, XP1; assay: biochemical; assay type: biochemical, Bacillus sp. 2113; settings: for activity at 1000 µM: read-out: Relative Activity(%) XP1
Experimental: as §2

[7] = Enzyme activity at different temperatures (optimum / appropriate temperature); assay type: biochemical
Experimental: (§3) Fifty microliters of a sample solution is added to 200 μl of 1% birch xylan (Sigma) solution (pH 6.5, in 1/10 McIlvaine buffer), and reacted at 70° C. for 5 minutes. Five hundreds microliters of DNS reagent is added thereto and boiled for 5 minutes. Then, the reaction mixture is immediately ice-cooled and 4 ml distilled water is added thereto. Thereafter, absorbance at 500 nm is measured. Calibration curves are prepared by using a xylose solution of known concentration.
(§4) As to the unit of xylanase activity, one unit (U) was defined as the amount of enzyme which releases […] of reducing sugar per minute under the above conditions.
The enzyme activity of each enzyme was determined at different temperatures.

[8] = Action: thin-layer chromatography of reaction products from birch xylan; assay type: biochemical; settings: 1% birch xylan, pH 7.0, 60° C., 10 U enzyme, TLC
Experimental: To 5 ml of 1% birch xylan (Sigma) solution (pH 7.0, in 40 mM sodium phosphate buffer), 10 U of each of XP1 and XP2 was added and reacted at 60° C. After a certain reaction period, the reaction was terminated by boiling and 10 μl of the reaction mixture was subjected to thin-layer chromatography using HPTLC Kieselgel 60 F254 (Merk) as a thin layer and a mixture of n-butanol, acetic acid and water (10:5:1) as a developer. The coloring was carried out by spraying a diphenylamine-aniline reagent and heating at 120° C. for 10 minutes.
The number of minutes shown in this FIG. represents the reaction time of the enzyme.

[9] = Determination of xylanase activity (DNS reducing sugar method); assay type: biochemical; settings: purified enzyme
Experimental: as §3, §4
Fifty microliters of the crude enzyme solution was added to 200 μl of 1% birch xylan (Sigma) solution (in 1/10 McIlvaine buffer, pH 6. 5), and reacted at 70° C. for 5 minutes.
After addition of DNS reagent (500 μl) and subsequent boiling for 5 minutes, the reaction mixture was immediately ice-cooled and 4 ml of distilled water was added thereto. Then, absorbance at 500 nm was measured. Calibration curves were prepared by using a xylose solution of known concentration.
As to the unit of xylanase activity, one unit (U) was defined as the amount of enzyme which releases 1 μmol of reducing sugar per minute under the above conditions. […]

[10] = Optimum pH for reaction (enzyme activity measured at each pH); assay type: biochemical
Experimental: (§5) For each of the enzymes, the optimum pH and pH stability were determined by using glycine-HCl buffer (pH 3 or below), acetate buffer (pH 4-5), sodium phosphate buffer (pH 6-7), Tris-HCl buffer (pH 8-9) and glycine-NaOH buffer (pH 9.1-10.1). The enzyme activity of each xylanase was measured at each of the pH values.
as §3, §4

[11] = Thermostability (residual activity after 30 min at a certain temperature); assay type: physicochemical; settings: 50 mM Tris-HCl buffer (pH 7.2)
Experimental: In addition, after each enzyme was left in 50 mM Tris-HCl buffer (pH 7.2) for 30 minutes at a certain temperature, the enzyme activity was determined.

[12] = pH stability (enzyme activity after two nights in buffer); assay type: physicochemical; settings: retained in 50 mM buffer for two nights
Experimental: as §5
In addition, each of the enzymes was retained in a certain 50 mM buffer for two nights and then the enzyme activity was determined.

Substrate specificity = assay type: biochemical
[13] = inhibitor 1 mM, 4° C. overnight, also 1 mM in reaction mixture, None = 100

T1 sequence (A4GG22 29-211): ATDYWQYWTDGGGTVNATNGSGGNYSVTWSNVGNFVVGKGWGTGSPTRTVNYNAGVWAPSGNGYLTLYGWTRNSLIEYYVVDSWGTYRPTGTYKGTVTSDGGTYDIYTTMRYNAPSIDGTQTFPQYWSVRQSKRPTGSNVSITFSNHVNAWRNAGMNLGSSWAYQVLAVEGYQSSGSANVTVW
T1 sequence (A4GG22 29-211): as above

O=S(=O)([O-])[O-].[Fe+2] [FeSO4]
Relative Activity(%) XP2 (XP2 [1]): 99% | Relative Activity(%) XP1 (XP1 [2]): 165%

[Ba+2].[Cl-].[Cl-] [BaCl2]
Relative Activity(%) XP2 (XP2 [1]): 108% | Relative Activity(%) XP1 (XP1 [2]): 137%

[Cl][Hg][Cl] [HgCl2]
inhibition of XP2 by metal ion (in words) (XP2 [1]): strongly inhibited | Relative Activity(%) XP2 (XP2 [1]): 0% | inhibition of XP1 by metal ion (in words) (XP1 [3]): strongly inhibited | Relative Activity(%) XP1 (XP1 [2]): 24%

[N-]=[N+]=[N-].[Na+] [NaN3]
Relative Activity(%) XP1 (XP1 [4]): 96% | Relative Activity(%) XP2 (XP2 [5]; [13]): 109%

[Cl-].[Li+] [LiCl]
Relative Activity(%) XP2 (XP2 [1]): 99% | Relative Activity(%) XP1 (XP1 [2]): 128%

[Cl][Mn][Cl] [MnCl2]
inhibition of XP2 by metal ion (in words) (XP2 [1]): weakly inhibited | Relative Activity(%) XP2 (XP2 [1]): 74% | Relative Activity(%) XP1 (XP1 [2]): 99%

O=C(O)CN(CCN(CC(=O)O)CC(=O)O)CC(=O)O [EDTA]
inhibition of XP1 by inhibitor (in words) (XP1 [6]): weakly inhibited | activity at 1000 µM (XP1 [6]): 59% | Relative Activity(%) XP2 (XP2 [5]): 65% | inhibition of XP2 by inhibitor (in words) (XP2 [5]): weakly inhibited

[Cl-].[Rb+] [RbCl]
Relative Activity(%) XP2 (XP2 [1]): 98% | Relative Activity(%) XP1 (XP1 [2]): 121%

XP1: thermostable xylanase from Bacillus sp. 2113 culture, active fraction eluted earlier; amino acid sequence SEQ ID NO: 1
optimum temperature for reaction [7]: 70 °C | products formed upon acting on xylan [8]: xyloligosaccharides | specific activity [9]: 1420 U/mg | optimum pH for reaction [10]: 5-8 | residual enzyme activity after 30 min treatment at 50° C. ([11]; 50° C.): ≥ 90% | residual enzyme activity after 30 min treatment at 60° C. ([11]; 60° C.): ≥ 50% | pH at which the xylanase is stable [12]: 3.0-9.0 | substrate specificity (Substrate specificity): act on prepared xylans such as birch xylan and oat spelt xylan, as well as xylan-containing materials such as hardwood kraft pulp and oat spelt bran; also recorded: acting on prepared xylans including birch xylan and oat spelt xylan, as well as xylan-containing materials including hardwood kraft pulp and oat spelt bran

[Cl-].[Cl-].[Mg+2] [MgCl2]
Relative Activity(%) XP2 (XP2 [1]): 103% | Relative Activity(%) XP1 (XP1 [2]): 129%

[Ca+2].[Cl-].[Cl-] [CaCl2]
Relative Activity(%) XP2 (XP2 [1]): 98% | Relative Activity(%) XP1 (XP1 [2]): 106%

[Cl-].[Cl-].[Co+2] [CoCl2]
inhibition of XP2 by metal ion (in words) (XP2 [1]): weakly inhibited | Relative Activity(%) XP2 (XP2 [1]): 70% | Relative Activity(%) XP1 (XP1 [2]): 107%

[Cl][Ni][Cl] [NiCl2]
Relative Activity(%) XP2 (XP2 [1]): 93% | Relative Activity(%) XP1 (XP1 [2]): 129%

O[C@H](CS)[C@H](O)CS (racemic) [Dithiothreitol]
activity at 1000 µM (XP1 [4]): 85% | Relative Activity(%) XP2 (XP2 [5]; [13]): 82%

CCCCCCCCCCCCOS(=O)(=O)O [SDS]
inhibition of XP1 by inhibitor (in words) (XP1 [6]; 1 mM): strongly inhibited | activity at 1000 µM (XP1 [4]): 0% | inhibition of XP2 by inhibitor (in words) (XP2 [5]; 1 mM): strongly inhibited | Relative Activity(%) XP2 (XP2 [5]; [13]): 0%

[Cl][Al]([Cl])[Cl] [AlCl3]
Relative Activity(%) XP2 (XP2 [1]): 100% | Relative Activity(%) XP1 (XP1 [2]): 110%

[Cl][Cu][Cl] [CuCl2]
inhibition of XP2 by metal ion (in words) (XP2 [1]): weakly inhibited | Relative Activity(%) XP2 (XP2 [1]): 68% | Relative Activity(%) XP1 (XP1 [2]): 87%

O=C(O)CI [Iodoacetic acid]
inhibition of XP1 by inhibitor (in words) (XP1 [6]): weakly inhibited | activity at 1000 µM (XP1 [6]): 75% | Relative Activity(%) XP2 (XP2 [5]): 76% | inhibition of XP2 by inhibitor (in words) (XP2 [5]): weakly inhibited
